Series [1] addresses T1, Solute carrier organic anion transporter family member 1B3 (Homo sapiens, UniProt Q9NPD5).
T1 sequence (Q9NPD5 whole entry): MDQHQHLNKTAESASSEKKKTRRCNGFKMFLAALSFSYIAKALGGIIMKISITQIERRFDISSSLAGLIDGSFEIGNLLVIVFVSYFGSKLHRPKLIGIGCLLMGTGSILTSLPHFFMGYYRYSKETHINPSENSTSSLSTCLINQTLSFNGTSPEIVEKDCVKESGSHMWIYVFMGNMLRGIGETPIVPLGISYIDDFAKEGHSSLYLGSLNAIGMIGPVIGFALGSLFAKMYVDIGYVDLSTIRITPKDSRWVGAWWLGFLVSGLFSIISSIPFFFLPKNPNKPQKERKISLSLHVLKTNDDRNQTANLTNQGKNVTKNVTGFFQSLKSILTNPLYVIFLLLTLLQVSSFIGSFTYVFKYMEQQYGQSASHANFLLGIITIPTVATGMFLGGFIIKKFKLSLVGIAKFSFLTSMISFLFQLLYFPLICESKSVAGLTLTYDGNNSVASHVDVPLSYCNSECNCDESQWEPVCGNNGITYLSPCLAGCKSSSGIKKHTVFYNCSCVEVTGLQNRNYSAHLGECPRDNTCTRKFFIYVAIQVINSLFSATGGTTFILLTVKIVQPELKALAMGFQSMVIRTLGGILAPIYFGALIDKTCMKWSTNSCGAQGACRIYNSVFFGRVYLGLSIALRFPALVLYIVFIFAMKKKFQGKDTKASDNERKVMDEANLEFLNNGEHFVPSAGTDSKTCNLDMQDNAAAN
To be noted: chinese hamster, cho, 10 µM.

In series [2] the target is T2, Solute carrier organic anion transporter family member 1B1 (Homo sapiens, UniProt Q9Y6L6).
T2 sequence (Q9Y6L6 whole entry): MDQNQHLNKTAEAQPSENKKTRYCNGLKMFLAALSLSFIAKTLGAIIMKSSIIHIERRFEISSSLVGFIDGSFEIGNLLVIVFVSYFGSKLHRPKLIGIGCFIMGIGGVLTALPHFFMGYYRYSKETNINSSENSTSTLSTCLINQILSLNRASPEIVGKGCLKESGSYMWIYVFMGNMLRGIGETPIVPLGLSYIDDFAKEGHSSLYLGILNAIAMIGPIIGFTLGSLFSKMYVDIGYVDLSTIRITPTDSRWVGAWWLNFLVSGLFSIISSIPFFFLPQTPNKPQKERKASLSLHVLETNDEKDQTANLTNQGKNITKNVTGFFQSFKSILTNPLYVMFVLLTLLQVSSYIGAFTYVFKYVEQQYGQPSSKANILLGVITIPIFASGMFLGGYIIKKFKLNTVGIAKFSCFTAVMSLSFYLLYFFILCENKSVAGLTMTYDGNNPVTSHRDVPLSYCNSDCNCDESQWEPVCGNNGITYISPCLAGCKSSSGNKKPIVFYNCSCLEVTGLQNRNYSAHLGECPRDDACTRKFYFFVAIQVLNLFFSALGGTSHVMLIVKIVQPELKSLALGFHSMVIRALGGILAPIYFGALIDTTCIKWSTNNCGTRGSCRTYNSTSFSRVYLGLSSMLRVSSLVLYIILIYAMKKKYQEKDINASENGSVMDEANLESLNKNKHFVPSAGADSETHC
To be noted: chinese hamster, cho, 10 µM.

39 compounds from ChEMBL document CHEMBL3039007, “Structure-based identification of OATP1B1/3 inhibitors” (Mol Pharmacol, 2013) can be followed below.

Each structure is given as a SMILES string.

Broadly, the residual activity is the signal under treatment as a percentage of the control signal. As to `Cc1ccc(/C(=C\CN2CCCC2)c2ccccn2)cc1.Cl`, the residual activity in series [1] amounted to 76.5%; in series [2], 83.77%.
Taken in the same sequence, the figures for `CC1(C)C(=O)C=C[C@]2(C)[C@H]3CC[C@@]4(C)[C@H](c5ccoc5)OC(=O)[C@H]5O[C@]54[C@]3(C)[C@H](O)C[C@@H]12` [DEACETYLGEDUNIN] were 60.92% and 74.35%.
Take `C[C@H](C[C@@H](O)[C@@H]1OC1(C)C)[C@@H]1CC[C@]2(C)C3=CC[C@H]4C(C)(C)C(=O)CC[C@]4(C)[C@H]3CC[C@@]12C` [NILOTICIN]: the residual activity in series [1] was determined as 113.7%; in series [2] it was 72.03%.
On to `COc1ccccc1OCC(O)CN1CCN(CC(=O)Nc2c(C)cccc2C)CC1` (stereo not drawn) [RANOLAZINE], for which the residual activity is on record as 83.1% in series [1] and 70.75% in series [2].
The corresponding values for `COc1cc2c(cc1O)CCN[C@@H]2C` [SALSOLINE] are 112.8% and 86.65%.
The corresponding values for `Cc1c(Cl)cccc1Nc1ccccc1C(=O)O` [TOLFENAMIC ACID] are 77.01% and 95.07%.
For the compound `CC(C)=CCC[C@]1(C)C=Cc2c(O)c3c(c(CC=C(C)C)c2O1)O[C@]12C(=C[C@@H]4C[C@H]1C(C)(C)O[C@@]2(C/C=C(/C)C(=O)O)C4=O)C3=O` [GAMBOGIC ACID], the residual activity in series [1] turned out to be 65.8%; in series [2], 75.57%.
Taken in the same sequence, the figures for `O=C1CCC[C@@H]2[C@H]3C[C@@H](CN12)[C@@H]1CCCCN1C3.[O-][Cl+3]([O-])([O-])O` were 104.5% and 115.5%.
The corresponding values for `OCCN1CCN(CCCN2c3ccccc3Sc3ccc(Cl)cc32)CC1` [PERPHENAZINE] are 113.3% and 130%.
Taken in the same sequence, the figures for `C=CCc1ccc2c(c1)OCO2` [SAFROLE] were 100.9% and 83.42%.
Turning to `CC(C)=CCc1c2c(c3occ(-c4ccc(O)c(O)c4)c(=O)c3c1O)C=CC(C)(C)O2` [POMIFERIN], the residual activity in series [1] was determined as 87.87%; in series [2], 114.2%.
Taken in the same sequence, the figures for `O=c1[nH]cnc2nc[nH]c12` [HYPOXANTHINE] were 92.8% and 92.05%.
For the compound `Cl.c1ccc2c(CC3=NCCN3)cccc2c1` [NAPHAZOLINE HYDROCHLORIDE], the values for the residual activity in series [1] and in series [2] were 95.85% and 100.7%, respectively.
On to `O=C(O)c1cc(=O)c2ccccc2o1` [CHROMOCARB], for which the residual activity in series [1] came out at 93%; in series [2], 133.6%.
`NC[C@@H]1CC[C@@H](N)[C@@H](O[C@H]2[C@H](O)[C@@H](O[C@H]3O[C@H](CO)[C@@H](O)[C@H](N)[C@H]3O)[C@H](N)C[C@@H]2N)O1` [DIBEKACIN]: the residual activity in series [1] worked out at 96.4%; in series [2], 88.15%.
Taken in the same sequence, the figures for `C[C@H](N)[C@H](O)c1ccc(O)c(O)c1` [LEVONORDEFRIN] were 80.26% and 58.62%.
Taken in the same sequence, the figures for `O=C([O-])Cc1ccccc1Nc1c(Cl)cccc1Cl.[Na+]` [DICLOFENAC SODIUM] were 71.01% and 110.6%.
For `Cc1cc(=O)oc2cc(O)cc(O)c12` [5,7-DIHYDROXY-4-METHYLCOUMARIN], the figures for the residual activity in series [1] and in series [2] were 106.7% and 79.94%, respectively.
On to `CO/N=C(\C(=O)N[C@@H]1C(=O)N2C(C(=O)[O-])=C(COC(C)=O)CS[C@H]12)c1csc(N)n1.[Na+]` [CEFOTAXIME SODIUM], for which the residual activity in series [1] is reported as 119.2%; in series [2], 104.1%.
On to `CC(C)CCC[C@@H](C)[C@H]1CC[C@H]2[C@@H]3CC(=O)[C@H]4C[C@@H](O)CC[C@]4(C)[C@H]3CC[C@]12C` [5alpha-CHOLESTAN-3beta-OL-6-ONE], for which the residual activity in series [1] turned out to be 105.8%; in series [2], 101.9%.
`CC[C@]12CCCN3CCc4c(n(c5ccccc45)[C@@](O)(C(=O)OC)C1)[C@@H]32` [VINCAMINE]: the residual activity in series [1] is reported as 88.88%; in series [2], 72.87%.
The corresponding values for `Cc1cc(NS(=O)(=O)c2ccc(N)cc2)no1` [SULFAMETHOXAZOLE] are 94.47% and 104.3%.
Taken in the same sequence, the figures for `COc1ccc(-c2coc3c(OC)c(OC)cc(OC)c3c2=O)cc1` [ISOTECTORIGENIN TRIMETHYL ETHER] were 118.2% and 133.5%.
Regarding `O=C1OCCN1/N=C/c1ccc([N+](=O)[O-])o1` [FURAZOLIDONE], the residual activity worked out at 94.52% in series [1] and 91.17% in series [2].
For the compound `CCCCCCNC(=O)n1cc(F)c(=O)[nH]c1=O` [CARMOFUR], the residual activity in series [1] was 98.17%; in series [2] it was 107%.
`O=C(CCCN1CCC(O)(c2ccc(Cl)cc2)CC1)c1ccc(F)cc1` [HALOPERIDOL]: the residual activity is 111.7% in series [1] and 92.15% in series [2].
Taken in the same sequence, the figures for `CC[C@H]1CN2CC[C@H]1C[C@@H]2[C@@H](O)c1ccnc2ccc(OC)cc12` [HYDROQUINIDINE] were 96.11% and 77.48%.
For the compound `CC1=C(C(=O)O)N2C(=O)[C@@H](NC(=O)[C@H](N)c3ccccc3)[C@H]2SC1` [CEPHALEXIN ANHYDROUS], the residual activity in series [1] is 89.2%; in series [2], 94.03%.
The corresponding values for `CN(C)[C@@H]1C(O)=C(C(N)=O)C(=O)[C@@]2(O)C(O)=C3C(=O)c4c(O)cccc4[C@@](C)(O)[C@H]3C[C@@H]12.Cl` [TETRACYCLINE HYDROCHLORIDE] are 97.72% and 118.1%.
For `C[C@@H]1O[C@@H](O[C@H]2CC[C@]3(C=O)[C@H]4CC[C@]5(C)[C@@H](C6=CC(=O)OC6)CC[C@]5(O)[C@@H]4CC[C@]3(O)C2)[C@H](O)[C@H](O)[C@H]1O` [CONVALLATOXIN], the figures for the residual activity in series [1] and in series [2] were 95.81% and 102.3%, respectively.
Regarding `COC(=O)C1=CO[C@@H](O[C@@H]2O[C@H](CO)[C@@H](O)[C@H](O)[C@H]2O)[C@@H]2[C@@H](C)[C@@H](O)C[C@H]12` [LOGANIN], the residual activity stood at 87.42% in series [1] and 98.87% in series [2].
The corresponding values for `COc1c(Cl)ccc(Cl)c1C(=O)O` [3,6 DICHLOROMETHOXYBENZOIC ACID] are 155.5% and 88.8%.
Regarding `O=C(CCc1ccc(O)cc1)c1c(O)cc(O)cc1O[C@@H]1O[C@H](CO)[C@@H](O)[C@H](O)[C@H]1O` [PHLORIZIN], the figures for the residual activity in series [1] and in series [2] were 106.3% and 50.32%, respectively.
Taken in the same sequence, the figures for `O=C(/C=C(\O)c1ccccc1)c1ccccc1O` [2',beta-DIHYDROXYCHALCONE] were 97.75% and 95.04%.
Taken in the same sequence, the figures for `Cn1c(=O)c2c(ncn2CCO)n(C)c1=O` [ETOFYLLINE] were 86.25% and 64.41%.
Taken in the same sequence, the figures for `COc1cc(O)c2c(=O)c(-c3ccccc3)coc2c1` [5-HYDROXY-7-METHOXYISOFLAVONE] were 104.3% and 99.72%.
In the case of `C=CCCCCCCCCCCCC(O)CC(O)CO` (stereo in doubt; form 2) [AVOCADENE], the results for the residual activity in series [1] and in series [2] were 104.3% and 99.03%, respectively.
The corresponding values for `CC(C)(O)CC[C@@H](O)[C@](C)(O)[C@H]1CC[C@@]2(O)C3=CC(=O)[C@@H]4C[C@@H](O)[C@@H](O)C[C@]4(C)[C@H]3CC[C@]12C` [20-HYDROXYECDYSONE] are 127.1% and 115%.
On to `CCc1cccc(CC)c1N(COC)C(=O)CCl` [ALACHLOR], for which the results for the residual activity in series [1] and in series [2] were 105% and 103.5%, respectively.
